Each structure is given as a SMILES string.

Data set [1] addresses T1, FGFR-1 (Homo sapiens, UniProt P11362).
T1 construct: The kinase domains from FGFR-1, VEGFR-2, Lck, and PDGF were purified from baculoviral vectors expression systems; made in house; host or cells: baculovirus expression system (insect cells)
Put plainly: FGFR tyrosine kinase inhibition (DELFIA). The conditions noted are these: kinase domain at 20 nM. In kind it is biochemical. The text has this: (§1) Full-length cDNAs for the mouse PDGF-β and human FGF-1 (flg) receptor tyrosine kinases were obtained from J. Escobedo and prepared as described in J. Biol. Chem., 1991;262:1482-1487. PCR primers were designed to amplify a fragment of DNA that codes for the intracellular tyrosine kinase domain. The fragment was inserted into a baculovirus vector, cotransfected with AcMNPV DNA, and the recombinant virus isolated. SF9 insect cells were infected with the virus to overexpress the protein, and the cell lysate was used for the assay. […] Filters were washed three times with 15% TCA containing 100 mM sodium pyrophosphate, and the radioactivity retained on the filters counted in a Wallac 1250 Betaplate reader. Nonspecific activity was defined as radioactivity retained on the filters following incubation of samples with buffer alone (no enzyme). […]
(§2) The inhibition activity of the compounds in Examples 7 and 8 were also evaluated using the Dissociated Enhanced Lanthanide Fluoroimmuno Assay (DELFIA) (Frank Loganzo and Carolyn Harady. A sensitive, time-resolved fluorometric assay for the detection of inhibitors of phosphotyrosine kinases. American Biotechnology Laboratory, December 1998). […] One hundred microliter DELFIA Enhancement Solution (EG&G Wallac) was added and time-resolved fluorescence of the reactions determined using a VICTOR2 1420 multilable counter (EG&G Wallac). […]

Data set [2] addresses T2, c-Src (Homo sapiens, UniProt P12931).
T2 construct: purchased Upstate Biotechnology, Lake Placid, N.Y
Put plainly: c-Src kinase inhibition (DELFIA). The data set is classed as biochemical. The conditions noted are these: c-Src at 3 units per reaction. The procedure: c-Src kinase is purified from baculovirus infected insect cell lysates using an antipeptide monoclonal antibody directed against the N-terminal amino acids (amino acids 2-17) of c-Src. The antibody, covalently linked to 0.65 μm latex beads, is added to a suspension of insect cell lysis buffer comprised of 150 mM NaCl, 50 mM Tris pH 7.5, 1 mM DTT, 1% NP-40, 2 mM EGTA, 1 mM sodium vanadate, 1 mM PMSF, 1 μg/mL each of leupeptin, pepstatin, and aprotinin. Insect cell lysate containing c-Src protein is incubated with these beads for 3 to 4 hours at 4° C. with rotation. […] The filters are then punched, counted in a liquid scintillation counter, and the data examined for inhibitory activity in comparison to a known inhibitor such as erbstatin. […]
as §2

The target of data set [3] is T3, PDGF (Mus musculus, UniProt P05622).
T3 construct: The kinase domains from FGFR-1, VEGFR-2, Lck, and PDGF were purified from baculoviral vectors expression systems; made in house; host or cells: baculovirus expression system (insect cells)
T3 sequence (P05622 599-961 limits assumed): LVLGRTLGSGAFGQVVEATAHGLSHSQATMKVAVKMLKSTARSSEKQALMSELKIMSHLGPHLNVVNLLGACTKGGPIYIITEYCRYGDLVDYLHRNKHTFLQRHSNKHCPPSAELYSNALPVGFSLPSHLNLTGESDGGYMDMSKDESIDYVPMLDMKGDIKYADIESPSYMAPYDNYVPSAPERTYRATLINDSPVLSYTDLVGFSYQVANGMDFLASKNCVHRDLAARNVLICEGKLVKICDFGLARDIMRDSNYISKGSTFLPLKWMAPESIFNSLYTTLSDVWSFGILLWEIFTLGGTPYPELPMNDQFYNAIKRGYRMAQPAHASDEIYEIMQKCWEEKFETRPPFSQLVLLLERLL
The experiment in a line: PDGF receptor tyrosine kinase inhibition (DELFIA). In kind it is biochemical. The conditions noted are these: kinase domain at 20 nM.
Description: as §1, §2

Data set [4] has as its target T4, Lck (Homo sapiens, UniProt P06239).
T4 construct: The kinase domains from FGFR-1, VEGFR-2, Lck, and PDGF were purified from baculoviral vectors expression systems; made in house; host or cells: baculovirus expression system (insect cells)
Put plainly: Lck kinase inhibition (DELFIA). In kind it is biochemical. The conditions noted are these: kinase domain at 20 nM. On the procedure: (§3) The inhibition activity of the compounds in Examples 7 and 8 were also evaluated using the Dissociated Enhanced Lanthanide Fluoroimmuno Assay (DELFIA) (Frank Loganzo and Carolyn Harady. A sensitive, time-resolved fluorometric assay for the detection of inhibitors of phosphotyrosine kinases. American Biotechnology Laboratory, December 1998). DELFIA plates (EG&G Wallac, Gaithersburg, Md.) were coated overnight with Poly Glu Tyr (4:1) (Sigma, St. Louis, Mo.) overnight at room temperature, washed (DELFIA wash reagent, EG&G Wallac), and spotted with 1 μL inhibitor dilution or DMSO carrier control per well. In some cases, kinase was autophosphorylated prior to analysis by incubating 45 minutes at 4° C. in the presence of 4 mM ATP and 25 mM MgCl2. A typical 100 μL kinase assay reaction contained 20 mM Tris (pH 7.5), 20 mM MgCl2, 50 mM NaCl, 5 mM DTT, 200 μM ATP, and protease inhibitors (Mini EDTA-free protease inhibitor cocktail tablets, Boehringer Mannheim, Indianapolis, Ind.), 40 μM ATP, and an appropriate concentration of inhibitor. The reaction was allowed to continue for 30 minutes at room temperature. […] One hundred microliter DELFIA Enhancement Solution (EG&G Wallac) was added and time-resolved fluorescence of the reactions determined using a VICTOR2 1420 multilable counter (EG&G Wallac). […]

Data set [5] has as its target T5, VEGFR-2 (Homo sapiens, UniProt P35968).
T5 construct: The kinase domains from FGFR-1, VEGFR-2, Lck, and PDGF were purified from baculoviral vectors expression systems; made in house; host or cells: baculovirus expression system (insect cells)
Put plainly: VEGFR-2 tyrosine kinase inhibition (DELFIA). In kind it is biochemical. The conditions noted are these: kinase domain at 20 nM; read-out: (VEGF-2) (IC50 = μM). The procedure:
as §3

T1 sequence (P11362 478-767 limits assumed): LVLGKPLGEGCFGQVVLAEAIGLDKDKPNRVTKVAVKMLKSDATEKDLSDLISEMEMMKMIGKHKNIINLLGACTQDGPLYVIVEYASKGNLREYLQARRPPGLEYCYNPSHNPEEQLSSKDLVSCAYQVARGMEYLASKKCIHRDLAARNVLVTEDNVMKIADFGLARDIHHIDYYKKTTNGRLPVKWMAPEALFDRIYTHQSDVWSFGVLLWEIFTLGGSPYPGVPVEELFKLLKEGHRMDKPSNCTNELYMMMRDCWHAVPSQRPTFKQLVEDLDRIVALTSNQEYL
T2 sequence (P12931 whole entry, species assumed): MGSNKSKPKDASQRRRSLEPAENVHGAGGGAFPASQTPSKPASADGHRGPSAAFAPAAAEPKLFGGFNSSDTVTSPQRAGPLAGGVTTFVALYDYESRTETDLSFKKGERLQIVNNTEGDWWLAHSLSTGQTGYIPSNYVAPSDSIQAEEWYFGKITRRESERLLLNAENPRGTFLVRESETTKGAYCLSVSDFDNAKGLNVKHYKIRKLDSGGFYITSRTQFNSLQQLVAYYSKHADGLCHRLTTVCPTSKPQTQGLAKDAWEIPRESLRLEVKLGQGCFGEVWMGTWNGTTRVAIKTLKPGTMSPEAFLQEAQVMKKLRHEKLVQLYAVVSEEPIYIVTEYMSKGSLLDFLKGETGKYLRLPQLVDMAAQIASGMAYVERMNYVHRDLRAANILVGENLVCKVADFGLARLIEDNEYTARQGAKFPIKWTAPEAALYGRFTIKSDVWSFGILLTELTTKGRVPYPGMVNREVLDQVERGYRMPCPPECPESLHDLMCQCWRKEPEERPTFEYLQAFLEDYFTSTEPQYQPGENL
T4 sequence (P06239 245-498 limits assumed, species assumed): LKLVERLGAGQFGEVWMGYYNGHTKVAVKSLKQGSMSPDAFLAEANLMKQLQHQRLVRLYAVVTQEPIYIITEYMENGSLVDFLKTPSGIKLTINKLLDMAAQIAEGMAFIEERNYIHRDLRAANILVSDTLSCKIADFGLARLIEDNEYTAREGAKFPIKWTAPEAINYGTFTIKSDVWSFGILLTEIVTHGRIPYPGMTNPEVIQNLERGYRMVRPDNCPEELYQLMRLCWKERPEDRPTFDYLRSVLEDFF
T5 sequence (P35968 834-1162 limits assumed, species assumed): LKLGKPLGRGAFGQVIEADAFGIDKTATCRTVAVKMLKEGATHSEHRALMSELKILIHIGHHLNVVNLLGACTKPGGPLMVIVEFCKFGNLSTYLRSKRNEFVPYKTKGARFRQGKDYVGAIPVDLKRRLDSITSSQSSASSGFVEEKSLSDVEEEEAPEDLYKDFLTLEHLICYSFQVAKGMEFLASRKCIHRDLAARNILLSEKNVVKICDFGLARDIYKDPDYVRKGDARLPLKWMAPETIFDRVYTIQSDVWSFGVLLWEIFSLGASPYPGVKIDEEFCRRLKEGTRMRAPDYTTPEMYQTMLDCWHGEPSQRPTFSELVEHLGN

Consider `CCN(CC)CCCCNc1nnc2cc(-c3cc(OC)cc(OC)c3)c(=O)n(CC)c2n1` [Example 7, 3-(4-Diethylamino-butylamino)-7-(3,5-dimethoxy-phenyl)-5-ethyl-5H-pyrido[2,3-e]-1,2,4-triazin-6-one], for which the melting point – broadly, the temperature, or range, at which the solid turns liquid – was 120 to 121 °C (dec.). Besides, inhibition in data set [1] was half-maximal at 6.04 µM (IC50). Moreover, the IC50 (as a rule, the concentration that inhibits the measured activity by half) in data set [2] came out at 10.6 µM. For the same compound, the 50% inhibitory concentration (IC50) in data set [3] is more than 50 µM.

As for `CCn1c(=O)c(-c2cc(OC)cc(OC)c2)cc2nnc(Nc3ccncc3)nc21` [Example 8, 7-(3,5-Dimethoxy-phenyl)-5-ethyl-3-(pyridin-4-ylamino)-5H-pyrido[2,3-e]-1,2,4-triazin-6-one], the IC50 is 1.22 µM in data set [1], more than 4 µM in data set [2], 0.35 µM in data set [5] and more than 50 µM in data set [3]. The Ki (as a rule, the dissociation constant of the complex between target and ligand, obtained from inhibition or displacement) in data set [4] is more than 4 µM.

Source of the values: US6683183B2, “Pyridotriazines and pyridopyridazines” (Warner-Lambert Company, priority 2000, dated 2004).
